Test results taken from the Bradley open melting point set (2014).

| SMILES | melting point [°C] |
| --- | --- |
| Oc1ccc(OCc2ccccc2)cc1 [Agerite] | 120 |
| CC(N)C(=O)O (configuration not stated) [Alanine] | 264 |
| C[C@]12CCC(=O)C=C1CC[C@@H]1[C@@H]2[C@@H](O)C[C@]2(C=O)[C@@H](C(=O)CO)CC[C@@H]12 [Aldosterone] | 166 |
| CC=1CCCC(C)(C)C=1/C=CC(C)=CC=CC(C)=CC(=O)O [Alitretinoin] | 190 |
| NCC[C@H](O)C(=O)N[C@@H]1C[C@H](N)[C@@H](O[C@H]2O[C@H](CN)[C@@H](O)[C@H](O)[C@H]2O)[C@H](O)[C@H]1O[C@H]1O[C@H](CO)[C@@H](O)[C@H](N)[C@H]1O [Amikacin] | 204 |
| NC1=NCC(c2ccccc2)O1 (configuration not stated) [Aminorex] | 137 |
| C[C@@H]1[C@H](O)[C@@H](C)C=CC=CC=CC=CC=CC=CC=C[C@H](O[C@@H]2O[C@H](C)[C@@H](O)[C@H](N)[C@@H]2O)C[C@@H]2O[C@](O)(C[C@@H](O)C[C@@H](O)[C@H](O)CC[C@@H](O)C[C@@H](O)CC(=O)O[C@H]1C)C[C@H](O)[C@H]2C(=O)O [Amphotericin B] | 170 |
| COc1ccccc1 [Anisole] | -37 |
| O=C1c2ccccc2Cc2ccccc21 [Anthracen-9(10H)-one] | 156 |
| C=CCC1(CC(C)C)C(=O)NC(=O)NC1=O [BUTALBITAL] | 138 |
| CCC1(CC)C(=O)NC(=O)NC1=O [Barbital] | 190 |
| O=[N+]([O-])c1ccc(C=NO)cc1 [Benzaldehyde, 4-nitro-, oxime] | 130 |
| N#Cc1cc(C#N)c(C#N)cc1C#N [Benzene-1,2,4,5-tetracarbonitrile] | 265 |
| Nc1ccccc1N [Benzene-1,2-diamine] | 102 |
| Nc1ccc(N)cc1 [Benzene-1,4-diamine] | 140 |
| O=S(=O)(O)c1ccccc1 [Benzenesulfonic acid] | 43.5 |
| c1ccc2c(c1)cc1ccc3cccc4ccc2c1c34 [Benzo[pqr]tetraphene] | 176 |
| CCOC(=O)c1ccc(N)cc1 [Benzocaine, Ethyl 4-aminobenzoate] | 90 |
| O=C(O)c1ccccc1 [Benzoic acid] | 122 |
| O=C(c1ccccc1)C(O)c1ccccc1 (configuration not stated) [Benzoin] | 137 |
| O=C(Cl)c1ccccc1 [Benzoyl chloride] | -1 |
| C[C@H]1C[C@H]2[C@@H]3CCC4=CC(=O)C=C[C@]4(C)[C@@]3(F)[C@@H](O)C[C@]2(C)[C@@]1(O)C(=O)CO [Betamethasone] | 232 |
| Nc1ccccc1-c1ccccc1 [Biphenyl-2-amine] | 51.5 |
| Nc1ccc(-c2ccc(N)cc2)cc1 [Biphenyl-4,4'-diamine] | 128 |

| SMILES | melting point [°C] |
| --- | --- |
| Oc1ccc(-c2ccccc2)cc1 [Biphenyl-4-ol] | 167 |
| Clc1cc2c(cc1Cl)-c1cc(Cl)c(Cl)cc1-2 [Biphenylene, 2,3,6,7-tetrachloro-] | 239 |
| CC(C)CCCCCCCOC(=O)c1ccccc1C(=O)OCCCCCCCC(C)C [Bis(8-methylnonyl) phthalate] | -50 |
| BrBr [Bromine] | -7.2 |
| Brc1ccccc1 [Bromobenzene] | -31 |
| CCC(C)C1(CC)C(=O)NC(=O)NC1=O (configuration not stated) [Butabarbital] | 166 |
| CCCCS [Butane-1-thiol] | -116 |
| CCCCOC(=O)c1ccc(N)cc1 [Butyl 4-aminobenzoate] | 58 |
| CCCCOC(=O)c1ccc(O)cc1 [Butyl 4-hydroxybenzoate] | 68.5 |
| CCCCc1ccccc1 [Butylbenzene] | -88 |
| CCCC=O [Butyraldehyde] | -96 |
| CCCC(=O)O [Butyric acid] | -5 |
| C=C1C(C[C@@H](O)C[C@@H]1O)=CC=C2/CCC[C@]3(C)[C@H](CC[C@@H]23)[C@H](C)CCCC(C)(C)O [Calcitriol] | 113 |
| CC1(C)[C@H]2CC[C@]1(C)C(=O)C2 [Camphor] | 180 |
| CC[C@@]1(O)C(=O)OCc2c1cc1n(c2=O)Cc2cc3ccccc3nc2-1 [Camptothecin] | 276 |
| CCCCCCCC(=O)O [Caprylic acid] | 16.3 |
| c1ccc2c(c1)[nH]c1ccccc12 [Carbazole] | 247 |
| C[C@@](Cc1ccc(O)c(O)c1)(NN)C(=O)O [Carbidopa] | 204 |
| [C-]#[O+] [Carbon monooxide] | -205 |
| NNC(=O)NN [Carbonohydrazide] | 158 |
| CC1=C(C(=O)O)N2C(=O)[C@@H](NC(=O)[C@H](N)C3=CCC=CC3)[C@H]2SC1 [Cefradine] | 140 |
| CON=C(/c1ccco1)C(=O)N[C@@H]3C(=O)N2C(=C(COC(N)=O)CS[C@@H]23)C(=O)O [Cefuroxime] | 222 |
| COc1ccc(C=CC(=O)c2ccccc2)cc1 [Chalcone, 4-methoxy-] | 76 |
